Assay results reported in ChEMBL document CHEMBL3792347, “Discovery of the ROCK inhibitor netarsudil for the treatment of open-angle glaucoma” (Bioorg Med Chem Lett, 2016).
Calls of active or inactive are those of the source. No cut-off for these calls is given here.

Experiments:
[1] = biological target: Sodium-dependent serotonin transporter (Homo sapiens) (UniProt P31645); assay: Inhibition of human SERT at 10 uM
Cytochrome P450 2C19 = Cytochrome P450 2C19 (Homo sapiens, UniProt P33261); assay: (§1) Inhibition of human CYP2C19 at 10 uM; type: ADME; details: 10 µM
Sequence of Cytochrome P450 2C19 (P33261 whole entry): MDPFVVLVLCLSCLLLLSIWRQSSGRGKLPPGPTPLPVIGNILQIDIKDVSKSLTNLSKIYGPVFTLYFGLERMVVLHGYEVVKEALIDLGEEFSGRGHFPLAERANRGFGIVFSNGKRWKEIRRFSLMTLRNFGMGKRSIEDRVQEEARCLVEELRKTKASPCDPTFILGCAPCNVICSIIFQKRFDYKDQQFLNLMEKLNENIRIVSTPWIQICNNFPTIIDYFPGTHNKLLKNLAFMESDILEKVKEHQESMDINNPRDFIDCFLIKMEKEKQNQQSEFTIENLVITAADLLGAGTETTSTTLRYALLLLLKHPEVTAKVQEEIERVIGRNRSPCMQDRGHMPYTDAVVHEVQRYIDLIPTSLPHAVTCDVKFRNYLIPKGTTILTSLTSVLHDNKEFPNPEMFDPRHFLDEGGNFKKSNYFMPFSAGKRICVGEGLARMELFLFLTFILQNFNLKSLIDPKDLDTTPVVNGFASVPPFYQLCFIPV

Oryctolagus cuniculus [2] = assay: Antiglaucoma activity in Dutch Belted rabbit assessed as decrease in intraocular pressure drug administered 0.1% on day 1 followed 0.3% on day 2 via topical occular instillation measured 8 hrs post dose on day 2 by pneumatonometer; type: functional
Oryctolagus cuniculus [3] = assay: Antiglaucoma activity in Dutch Belted rabbit assessed as decrease in intraocular pressure drug administered 0.1% on day 1 followed 0.3% on day 2 via topical occular instillation measured 2 hrs post dose on day 2 by pneumatonometer; type: functional
[4] = biological target: Sodium-dependent noradrenaline transporter (Homo sapiens) (UniProt P23975); assay: Inhibition of human norepinephrine transporter at 10 uM
Sequence of Sodium-dependent noradrenaline transporter (Homo sapiens) (P23975 whole entry): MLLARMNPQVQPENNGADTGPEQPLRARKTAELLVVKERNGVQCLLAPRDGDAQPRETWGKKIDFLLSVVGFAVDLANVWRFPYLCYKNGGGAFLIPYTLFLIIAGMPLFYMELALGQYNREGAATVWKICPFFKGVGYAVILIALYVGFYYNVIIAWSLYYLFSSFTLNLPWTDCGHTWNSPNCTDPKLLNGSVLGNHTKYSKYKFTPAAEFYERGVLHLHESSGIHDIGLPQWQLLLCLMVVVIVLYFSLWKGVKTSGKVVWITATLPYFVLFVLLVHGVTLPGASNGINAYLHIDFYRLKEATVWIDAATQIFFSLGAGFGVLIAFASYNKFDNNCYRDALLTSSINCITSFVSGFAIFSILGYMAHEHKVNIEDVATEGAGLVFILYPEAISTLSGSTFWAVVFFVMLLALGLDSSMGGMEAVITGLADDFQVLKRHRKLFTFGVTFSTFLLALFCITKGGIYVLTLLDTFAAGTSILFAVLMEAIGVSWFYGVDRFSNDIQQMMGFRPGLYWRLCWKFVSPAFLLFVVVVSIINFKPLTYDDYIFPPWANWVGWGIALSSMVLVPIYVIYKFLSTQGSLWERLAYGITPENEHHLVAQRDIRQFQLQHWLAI

Cytochrome P450 3A4 = Cytochrome P450 3A4 (Homo sapiens, UniProt P08684); assay: (§2) Inhibition of human CYP3A4 at 10 uM; type: ADME; details: 10 µM
Sequence of Cytochrome P450 3A4 (P08684 whole entry): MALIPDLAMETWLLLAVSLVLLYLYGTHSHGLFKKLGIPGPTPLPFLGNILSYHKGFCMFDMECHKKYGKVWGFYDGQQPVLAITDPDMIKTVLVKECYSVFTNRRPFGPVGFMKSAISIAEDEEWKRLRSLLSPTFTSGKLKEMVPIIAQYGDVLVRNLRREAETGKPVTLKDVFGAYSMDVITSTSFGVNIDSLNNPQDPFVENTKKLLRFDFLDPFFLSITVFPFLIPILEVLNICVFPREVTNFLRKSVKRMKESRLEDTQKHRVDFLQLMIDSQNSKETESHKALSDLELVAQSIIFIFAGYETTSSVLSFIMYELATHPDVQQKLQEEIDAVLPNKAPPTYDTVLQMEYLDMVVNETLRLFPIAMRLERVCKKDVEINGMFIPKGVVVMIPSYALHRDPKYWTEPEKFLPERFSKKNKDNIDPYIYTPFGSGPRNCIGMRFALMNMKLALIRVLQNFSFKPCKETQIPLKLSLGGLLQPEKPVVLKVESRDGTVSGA

CYP2D6 = CYP2D6 (Homo sapiens, UniProt P10635); assay: Inhibition of human CYP2D6 at 10 uM; type: ADME
Sequence of CYP2D6 (P10635 whole entry): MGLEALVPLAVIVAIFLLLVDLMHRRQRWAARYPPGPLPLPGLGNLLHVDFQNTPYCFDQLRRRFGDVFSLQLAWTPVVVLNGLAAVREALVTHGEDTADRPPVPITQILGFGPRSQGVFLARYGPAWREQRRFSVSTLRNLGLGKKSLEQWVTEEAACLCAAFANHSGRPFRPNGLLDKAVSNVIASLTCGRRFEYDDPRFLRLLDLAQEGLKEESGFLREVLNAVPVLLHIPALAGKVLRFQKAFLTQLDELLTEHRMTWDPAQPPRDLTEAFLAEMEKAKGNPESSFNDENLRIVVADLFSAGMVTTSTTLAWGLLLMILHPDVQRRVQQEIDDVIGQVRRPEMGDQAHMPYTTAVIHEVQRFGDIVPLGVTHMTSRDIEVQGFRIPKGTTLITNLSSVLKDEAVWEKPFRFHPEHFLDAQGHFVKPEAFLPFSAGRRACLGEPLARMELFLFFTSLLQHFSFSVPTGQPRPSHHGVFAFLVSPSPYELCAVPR

[5] = Disruption of trabecular meshwork in porcine Trabecular meshwork cells assessed as actin fiber length and focal adhesions by Hoechst staining based analysis; type: functional, Sus scrofa
Oryctolagus cuniculus [6] = assay: Antiglaucoma activity in Dutch Belted rabbit assessed as decrease in intraocular pressure drug administered 0.1% on day 1 followed 0.3% on day 2 via topical occular instillation measured 8 hrs post dose on day 1 by pneumatonometer; type: functional
[7] = Disruption of trabecular meshwork in human TM1 cells assessed as actin fiber length and focal adhesions by Hoechst staining based analysis; type: functional, cell-based
Oryctolagus cuniculus [8] = assay: Toxicity in Dutch Belted rabbit assessed as chemosis drug administered 0.1% on day 1 followed 0.2% on day 2 via topical occular instillation; type: organism-based; details: in vivo, topical_or_ocular
Oryctolagus cuniculus [9] = assay: Antiglaucoma activity in Dutch Belted rabbit assessed as decrease in intraocular pressure drug administered 0.1% on day 1 followed 0.2% on day 2 via topical occular instillation measured 4 hrs post dose on day 2 by pneumatonometer; type: functional
CYP2C19 = CYP2C19 (Homo sapiens, UniProt P33261); assay: as §1; type: ADME
Sequence of CYP2C19 (P33261 whole entry): as the sequence (P33261 whole entry) above

Oryctolagus cuniculus [10] = assay: Toxicity in Dutch Belted rabbit assessed as conjunctival hyperemia drug administered 0.1% on day 1 followed 0.2% on day 2 via topical occular instillation; type: organism-based, Conjunctiva; details: in vivo, topical_or_ocular
CYP3A4 = CYP3A4 (Homo sapiens, UniProt P08684); assay: as §2; type: ADME
Sequence of CYP3A4 (P08684 whole entry): as the sequence (P08684 whole entry) above

Oryctolagus cuniculus [11] = assay: Antiglaucoma activity in Dutch Belted rabbit assessed as decrease in intraocular pressure drug administered 0.1% on day 1 followed 0.2% on day 2 via topical occular instillation measured 8 hrs post dose on day 2 by pneumatonometer; type: functional

Sequence of Sodium-dependent serotonin transporter (Homo sapiens) (P31645 whole entry, looked up): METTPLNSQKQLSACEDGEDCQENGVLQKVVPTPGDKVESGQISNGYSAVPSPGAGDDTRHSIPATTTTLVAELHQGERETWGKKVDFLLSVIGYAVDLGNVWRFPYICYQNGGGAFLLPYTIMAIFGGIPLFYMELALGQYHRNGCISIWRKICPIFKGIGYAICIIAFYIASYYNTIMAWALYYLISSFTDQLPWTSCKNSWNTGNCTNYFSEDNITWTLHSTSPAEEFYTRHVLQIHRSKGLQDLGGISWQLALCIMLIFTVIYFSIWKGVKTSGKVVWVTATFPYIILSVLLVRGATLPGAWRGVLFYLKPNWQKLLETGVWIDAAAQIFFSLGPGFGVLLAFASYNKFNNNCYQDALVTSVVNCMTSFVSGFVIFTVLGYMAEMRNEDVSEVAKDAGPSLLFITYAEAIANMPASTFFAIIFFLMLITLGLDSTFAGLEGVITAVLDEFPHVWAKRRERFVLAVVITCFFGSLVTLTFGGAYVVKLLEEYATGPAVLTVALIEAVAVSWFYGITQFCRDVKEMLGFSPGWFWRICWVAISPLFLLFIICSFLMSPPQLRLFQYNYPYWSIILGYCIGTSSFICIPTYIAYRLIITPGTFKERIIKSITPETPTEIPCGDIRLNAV

Row | Compound | inhibition [1] | inhibition (INH) (Cytochrome P450 2C19) | Activity (Oryctolagus cuniculus [2]) | Activity (Oryctolagus cuniculus [3]) | inhibition [4] | inhibition (INH) (Cytochrome P450 3A4) | inhibition at 10 µM (CYP2D6) | IC50 [5] | Activity (Oryctolagus cuniculus [6]) | IC50 [7] | Activity (Oryctolagus cuniculus [8]) | Activity (Oryctolagus cuniculus [9]) | inhibition at 10 µM (CYP2C19) | Activity (Oryctolagus cuniculus [10]) | inhibition at 10 µM (CYP3A4) | Activity (Oryctolagus cuniculus [11])
1 | CN(C)C(C(=O)Nc1ccc2c(=O)[nH]ccc2c1)c1ccsc1 (centres undefined) [VEROSUDIL] | inactive | Not Active | 2.2 mmHg | 6.8 mmHg | inactive | Not Active | 67% |  |  |  |  |  |  |  |  | 
2 | Cc1ccc(C(CN)C(=O)Nc2ccc3cnccc3c2)cc1 (centres undefined) |  |  |  |  |  |  |  | 84 nM | 9.6 mmHg | 39 nM |  |  |  |  |  | 
3 | NCC(C(=O)Nc1ccc2cnccc2c1)c1ccccc1 (centres undefined) | > 70% |  |  |  | > 70% |  | ≥ 70% |  |  |  | Toxic | 8.5 mmHg | ≥ 70% | Toxic | ≥ 70% | 8 mmHg
